Data from ChEMBL document CHEMBL4828748, “Design, synthesis, and pharmacological evaluation of sinomenine derivatives on rings A and C: Novel compounds screening for aplastic anemia targeting on cytotoxic T lymphocyte” (Eur J Med Chem, 2021).

What was measured:
[1] = Cytotoxicity against C57BL/6J mouse peritoneal macrophages assessed as reduction of cell viability at 10 uM incubated for 24 hrs in presence of LPS by MTT assay; type: cell-based, Peritoneal macrophage
[2] = Inhibition of mouse CTLL-2 cells activity at 10 uM incubated for 24 hrs; type: functional
Peritoneal macrophage [3] = test: Inhibition of LPS-induced NO production in C57BL/6J mouse peritoneal macrophages at 10 uM measured after 24 hrs in presence of LPS by Griess reagent based assay relative to control; type: functional
[4] = Inhibition of mouse CTLL-2 cells activity incubated for 24 hrs; type: functional, cell-based
[5] = Acute toxicity in po dosed Kunming mouse; type: organism-based; settings: in vivo
[6] = Cytotoxicity against C57BL/6J mouse peritoneal macrophages assessed as reduction of cell viability at 1 uM incubated for 24 hrs in presence of LPS by MTT assay; type: cell-based, Peritoneal macrophage
Peritoneal macrophage [7] = test: Inhibition of LPS-induced NO production in C57BL/6J mouse peritoneal macrophages at 1 uM measured after 24 hrs in presence of LPS by Griess reagent based assay relative to control; type: functional

SMILES	inhibition at 24 h, 10 µM [1]	inhibition at 10 µM [2]	inhibition at 10 µM (Peritoneal macrophage [3])	IC50 [4]	LD50 [5]	inhibition at 24 h, 1 µM [6]	inhibition at 1 µM (Peritoneal macrophage [7])
C=CCCCCCCCCC(=O)Oc1c(OC)cc(C=O)c2c1[C@@]13CCN(C)[C@@H](C2)[C@H]1C=C(OC)C(=O)C3	1.3%	23.4%	11.6%	–	–	–	–
CCCCCCCC/C=C/CCCCCCCCCCCC(=O)Oc1c(OC)ccc2c1[C@@]13CCN(C)[C@@H](C2)[C@H]1C=C(OC)C(=O)C3	0.4%	32.6%	3.5%	–	–	–	–
COC1=C[C@@H]2[C@@H]3Cc4ccc(OC)c(OC(=O)c5cccnc5)c4[C@]2(CCN3C)CC1=O	0.8%	3.2%	14%	–	–	–	–
CCCCCCCCCCCCCC(=O)Oc1c(OC)ccc2c1[C@@]13CCN(C)[C@@H](C2)[C@H]1C=C(OC)C(=O)C3	2.7%	88.1%	4.3%	4.3 µM	–	–	–
CCCCCCCC/C=C/CCCCCCCCCCCC(=O)Oc1c(OC)cc(C=O)c2c1[C@@]13CCN(C)[C@@H](C2)[C@H]1C=C(OC)C(=O)C3	0.5%	29.6%	18.6%	–	–	–	–
C/C=C/C[C@@H](C)[C@@H](O)[C@H]1C(=O)N[C@@H](CC)C(=O)N(C)CC(=O)N(C)[C@@H](CC(C)C)C(=O)N[C@@H](C(C)C)C(=O)N(C)[C@@H](CC(C)C)C(=O)N[C@@H](C)C(=O)N[C@H](C)C(=O)N(C)[C@@H](CC(C)C)C(=O)N(C)[C@@H](CC(C)C)C(=O)N(C)[C@@H](C(C)C)C(=O)N1C [CYCLOSPORINE]	–	96.8%	–	–	–	–	–
CCCCCCCCCCCCCC(=O)Oc1c(OC)ccc2c1[C@@]13CCN(C)[C@@H](C2)[C@H]1C[C@@H](OC)C(=O)C3	4.6%	98.3%	46.2%	6.7 µM	–	–	–
C=CCCCCCCCCC(=O)OCc1cc(OC)c(OC(=O)CCCCCCCCC=C)c2c1C[C@H]1[C@H]3C=C(OC)C(=O)C[C@@]23CCN1C	9.3%	33.9%	-0.9%	–	–	–	–
CCCCCCCCCCCC(=O)Oc1c(OC)ccc2c1[C@@]13CCN(C)[C@@H](C2)[C@H]1C=C(OC)C(=O)C3	4.4%	98.7%	42.7%	3.8 µM	–	–	–
C/C=C/C=C/C(=O)OCc1cc(OC)c(OC(=O)/C=C/C=C/C)c2c1C[C@H]1[C@H]3C=C(OC)C(=O)C[C@@]23CCN1C	6.1%	6.2%	90.8%	–	–	–	–
CCCCCCCCCCCCCCCC(=O)OCc1cc(OC)c(OC(=O)CCCCCCCCCCCCCCC)c2c1C[C@H]1[C@H]3C=C(OC)C(=O)C[C@@]23CCN1C	5.3%	20.5%	-2.4%	–	–	–	–
COC1=C[C@@H]2[C@@H]3Cc4ccc(OC)c(O)c4[C@]2(CCN3C)CC1=O [SINOMENINE]	1.3%	2.8%	7.5%	–	1100 mg/kg	–	–
C=CCCCCCCCCC(=O)Oc1c(OC)ccc2c1[C@@]13CCN(C)[C@@H](C2)[C@H]1C=C(OC)C(=O)C3	8.8%	52.8%	94%	7.6 µM	–	–	–
COc1ccc2c(c1OC(=O)/C=C/c1ccccc1)[C@@]13CCN(C)[C@@H](C2)[C@H]1C[C@@H](OC)C(=O)C3	4.8%	11.6%	57.4%	–	–	–	–
COC1=C[C@@H]2[C@@H]3Cc4c(C=O)cc(OC)c(OC(C)=O)c4[C@]2(CCN3C)CC1=O	0.2%	10.3%	0.6%	–	–	–	–
COC1=C[C@@H]2[C@@H]3Cc4ccc(OC)c(OC(=O)/C=C/c5ccccc5)c4[C@]2(CCN3C)CC1=O	-3.3%	5.4%	61.1%	–	–	–	–
COc1ccc2c(c1O)[C@@]13CCN(C)[C@@H](C2)[C@H]1C[C@@H](OC)C(=O)C3	6.5%	5.8%	6.5%	–	–	–	–

SMILES	inhibition at 24 h, 10 µM [1]	inhibition at 10 µM [2]	inhibition at 10 µM (Peritoneal macrophage [3])	IC50 [4]	LD50 [5]	inhibition at 24 h, 1 µM [6]	inhibition at 1 µM (Peritoneal macrophage [7])
C/C=C/C=C/C(=O)Oc1c(OC)cc(C=O)c2c1[C@@]13CCN(C)[C@@H](C2)[C@H]1C=C(OC)C(=O)C3	1.4%	14%	46%	–	–	–	–
CCCCCCCCCCCC(=O)Oc1c(OC)ccc2c1[C@@]13CCN(C)[C@@H](C2)[C@H]1C[C@@H](OC)C(=O)C3	3.1%	96.7%	5%	4.4 µM	–	–	–
COc1ccc2c(c1OC(C)=O)[C@@]13CCN(C)[C@@H](C2)[C@H]1C[C@@H](OC)C(=O)C3	3.2%	12.5%	5.6%	–	–	–	–
C/C=C/C=C/C(=O)Oc1c(OC)ccc2c1[C@@]13CCN(C)[C@@H](C2)[C@H]1C=C(OC)C(=O)C3	0.3%	14.3%	46.9%	–	–	–	–
COc1ccc2c(c1OC(=O)c1cccnc1)[C@@]13CCN(C)[C@@H](C2)[C@H]1C[C@@H](OC)C(=O)C3	3.1%	9.1%	11.2%	–	–	–	–
CCCCCCCCCCCCCCCC(=O)Oc1c(OC)ccc2c1[C@@]13CCN(C)[C@@H](C2)[C@H]1C[C@@H](OC)C(=O)C3	1.7%	45.3%	93.5%	–	–	–	–
CCCCCCCCCCCC(=O)Oc1c(OC)cc(C=O)c2c1[C@@]13CCN(C)[C@@H](C2)[C@H]1C=C(OC)C(=O)C3	0%	25.2%	2.2%	–	–	–	–
C[C@@H]1C[C@H]2[C@@H]3CCC4=CC(=O)C=C[C@]4(C)[C@@]3(F)[C@@H](O)C[C@]2(C)[C@@]1(O)C(=O)CO [DEXAMETHASONE]	–	–	–	–	–	17%	62.8%
C/C=C/C=C/C(=O)Oc1c(OC)ccc2c1[C@@]13CCN(C)[C@@H](C2)[C@H]1C[C@@H](OC)C(=O)C3	5.1%	1.1%	40.7%	–	–	–	–
CCCCCCCCCCCCCC(=O)OCc1cc(OC)c(OC(=O)CCCCCCCCCCCCC)c2c1C[C@H]1[C@H]3C=C(OC)C(=O)C[C@@]23CCN1C	2.5%	-0.9%	10.1%	–	–	–	–
CCCCCCCCCCCCCC(=O)Oc1c(OC)cc(C=O)c2c1[C@@]13CCN(C)[C@@H](C2)[C@H]1C=C(OC)C(=O)C3	0.5%	90.8%	33.9%	3.7 µM	–	–	–
COC1=C[C@@H]2[C@@H]3Cc4c(C=O)cc(OC)c(OC(=O)/C=C/c5ccccc5)c4[C@]2(CCN3C)CC1=O	0.6%	4.7%	21.6%	–	–	–	–
CCCCCCCCCCCCCCCC(=O)Oc1c(OC)cc(C=O)c2c1[C@@]13CCN(C)[C@@H](C2)[C@H]1C=C(OC)C(=O)C3	-1.9%	32.2%	21%	–	–	–	–
CCCCCCCCCCCC(=O)OCc1cc(OC)c(OC(=O)CCCCCCCCCCC)c2c1C[C@H]1[C@H]3C=C(OC)C(=O)C[C@@]23CCN1C	6.2%	6.8%	3.4%	–	–	–	–
COC1=C[C@@H]2[C@@H]3Cc4c(C=O)cc(OC)c(O)c4[C@]2(CCN3C)CC1=O	2.5%	3.5%	4.2%	–	–	–	–
CCCCCCCC/C=C/CCCCCCCCCCCC(=O)OCc1cc(OC)c(OC(=O)CCCCCCCCCCC/C=C/CCCCCCCC)c2c1C[C@H]1[C@H]3C=C(OC)C(=O)C[C@@]23CCN1C	0.2%	6.7%	1.1%	–	–	–	–
COC1=C[C@@H]2[C@@H]3Cc4c(CO)cc(OC)c(O)c4[C@]2(CCN3C)CC1=O	1.2%	6.1%	3.6%	–	–	–	–
